Test results from ChEMBL document CHEMBL4400563, “Discovery of a small molecule RXFP3/4 agonist that increases food intake in rats upon acute central administration” (Bioorg Med Chem Lett, 2019).
Calls of active or inactive are those of the source. The calls are words filed in the database; no cut-off is given here.

Columns and labels:
Relaxin-3 receptor 2 [1] = molecular target: T1, Relaxin-3 receptor 2 (Homo sapiens, UniProt Q8TDU9); experiment: Agonist activity at human RXFP4 expressed in CHOK1 cells assessed as inhibition of forskolin-stimulated intracellular cAMP accumulation preincubated for 30 mins followed by forskolin-stimulation and measured after 30 mins by HTRF assay; assay type: functional, cell-based
Relaxin-3 receptor 2 [2] = molecular target: T1, Relaxin-3 receptor 2; experiment: Agonist activity at human RXFP4 expressed in CHOK1 cells assessed as inhibition of forskolin-stimulated intracellular cAMP accumulation preincubated for 30 mins followed by forskolin-stimulation and measured after 30 mins by HTRF assay relative to relaxin-3; assay type: functional, cell-based
[3] = molecular target: T2, Relaxin-3 receptor 1 (Homo sapiens) (UniProt Q9NSD7); experiment: Agonist activity at human RXFP3 expressed in CHOK1 cells assessed as inhibition of forskolin-stimulated intracellular cAMP accumulation preincubated for 30 mins followed by forskolin-stimulation and measured after 30 mins by HTRF assay relative to relaxin-3; assay type: functional, cell-based
T2 sequence (whole entry): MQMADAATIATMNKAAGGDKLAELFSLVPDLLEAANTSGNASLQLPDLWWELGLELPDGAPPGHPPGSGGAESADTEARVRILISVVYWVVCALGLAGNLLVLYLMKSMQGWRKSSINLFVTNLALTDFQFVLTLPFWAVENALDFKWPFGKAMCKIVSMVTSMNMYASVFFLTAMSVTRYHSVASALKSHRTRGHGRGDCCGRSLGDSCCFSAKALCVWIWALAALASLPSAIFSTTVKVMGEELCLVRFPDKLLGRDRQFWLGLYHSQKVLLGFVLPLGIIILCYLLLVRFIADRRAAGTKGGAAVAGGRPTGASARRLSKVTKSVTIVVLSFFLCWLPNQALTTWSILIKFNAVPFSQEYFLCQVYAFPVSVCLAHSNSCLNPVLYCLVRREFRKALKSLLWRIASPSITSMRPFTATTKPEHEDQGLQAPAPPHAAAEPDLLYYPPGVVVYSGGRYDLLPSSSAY

Relaxin-3 receptor 1 = molecular target: T3, Relaxin-3 receptor 1 (Homo sapiens, UniProt Q9NSD7); experiment: Agonist activity at human RXFP3 expressed in CHOK1 cells assessed as inhibition of forskolin-stimulated intracellular cAMP accumulation preincubated for 30 mins followed by forskolin-stimulation and measured after 30 mins by HTRF assay; assay type: functional, cell-based
T3 sequence (Q9NSD7 whole entry): T2 sequence (whole entry)

Rattus norvegicus [4] = experiment: Induction of food intake in satiated Sprague-Dawley rat at 1 umol, icv after 0 to 2 hrs (reference value: 1.7 +/- 0.5g); assay type: functional
CHO-K1 [5] = experiment: Effect on total ERK1/2 protein levels in CHOK1 cells at 5 uM by Western blot analysis; assay type: ADME, cell-based, Cricetulus griseus; conditions: chinese hamster, cho-k1, 5 µM
Cricetulus griseus [6] = species: Cricetulus griseus; experiment: Induction of JNK phosphorylation CHOK1 cells at 5 uM by Western blot analysis
[7] = molecular target: T2, Relaxin-3 receptor 1 (Homo sapiens); experiment: Agonist activity at human RXFP3 expressed in CHOK1 cells assessed as induction of p38 MAPK phosphorylation at 5 uM by Western blot analysis; assay type: cell-based
[8] = molecular target: Relaxin-3 receptor 1/2 (Homo sapiens) (UniProt Q9NSD7+Q8TDU9); experiment: Agonist activity at human RXFP3/4 in human U2OS cells assessed as induction of beta-arrestin recruitment incubated for 1 hr by chemiluminescence based PathHunter beta-arrestin assay relative to relaxin-3; assay type: cell-based
Rattus norvegicus [9] = experiment: Induction of food intake in Sprague-Dawley rat at 1 umol, icv after 4 hrs (reference value: 2.5 +/- 0.6g); assay type: functional
[10] = molecular target: T2, Relaxin-3 receptor 1 (Homo sapiens); experiment: Agonist activity at human RXFP3 expressed in CHOK1 cells assessed as induction of ERK1/2 phosphorylation at 5 uM by Western blot analysis; assay type: cell-based
Relaxin-3 receptor 2 [11] = molecular target: T1, Relaxin-3 receptor 2; experiment: Agonist activity at human RXFP4 expressed in CHOK1 cell membranes assessed as stimulation of [35S]-GTPgammaS binding after 3 hrs by scintillation counting method; assay type: functional
CHO-K1 [12] = experiment: Effect on total JNK protein levels in CHOK1 cells at 5 uM by Western blot analysis; assay type: ADME, cell-based, Cricetulus griseus; conditions: chinese hamster, cho-k1, 5 µM
Cricetulus griseus [13] = species: Cricetulus griseus; experiment: Induction of ERK1/2 phosphorylation CHOK1 cells at 5 uM by Western blot analysis
CHO-K1 [14] = experiment: Effect on total p38 MAPK protein levels in CHOK1 cells at 5 uM by Western blot analysis; assay type: ADME, cell-based, Cricetulus griseus; conditions: chinese hamster, cho-k1, 5 µM
Rattus norvegicus [15] = experiment: Induction of food intake in Sprague-Dawley rat at 1 umol, icv after 24 hrs (reference value: 24.1 +/- 2.7g); assay type: functional
Cricetulus griseus [16] = species: Cricetulus griseus; experiment: Induction of p38 MAPK phosphorylation CHOK1 cells at 5 uM by Western blot analysis
[17] = molecular target: T2, Relaxin-3 receptor 1 (Homo sapiens); experiment: Agonist activity at human RXFP3 expressed in CHOK1 cells assessed as induction of JNK phosphorylation at 5 uM by Western blot analysis; assay type: cell-based

T1 sequence (Q8TDU9 whole entry): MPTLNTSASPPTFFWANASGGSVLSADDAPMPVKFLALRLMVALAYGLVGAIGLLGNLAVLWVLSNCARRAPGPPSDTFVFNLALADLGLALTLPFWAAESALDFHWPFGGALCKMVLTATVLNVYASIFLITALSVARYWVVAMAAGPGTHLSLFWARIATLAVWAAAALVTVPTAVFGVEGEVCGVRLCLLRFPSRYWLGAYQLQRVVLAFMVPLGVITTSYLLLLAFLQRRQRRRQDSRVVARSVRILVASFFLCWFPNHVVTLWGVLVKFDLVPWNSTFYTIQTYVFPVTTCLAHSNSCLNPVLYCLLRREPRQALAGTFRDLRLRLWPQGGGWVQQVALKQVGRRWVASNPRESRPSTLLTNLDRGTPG
Sequence of Relaxin-3 receptor 1/2 (Homo sapiens) (Q8TDU9 whole entry, looked up, one chain of several): as the sequence (Q8TDU9 whole entry) above

COc1cc(C)c2[nH]cc(/C=N/NC(=N)NCCc3ccc(Cl)cc3)c2c1
EC50 (Relaxin-3 receptor 2 [1]): 100 nM
Emax (Relaxin-3 receptor 2 [2]): 113%
Emax [3]: 55.7%
EC50 (Relaxin-3 receptor 1): 1300 nM

COc1cc(C)c2[nH]cc(/C=N/NC(=N)NCCc3ccc(Cl)c(Cl)c3)c2c1
EC50 (Relaxin-3 receptor 2 [1]): 58 nM
Emax (Relaxin-3 receptor 2 [2]): 99 to 99.2%

Cc1cc(O)cc2c(/C=N/NC(=N)NCCc3ccc(Cl)c(Cl)c3)c[nH]c12
EC50 (Relaxin-3 receptor 2 [1]): 4 nM
Emax (Relaxin-3 receptor 2 [2]): 113%
Emax [3]: 77.7%
EC50 (Relaxin-3 receptor 1): 800 nM

CCc1cc(O)cc2c(/C=N/NC(=N)NCCc3ccc(Cl)cc3)c[nH]c12
Activity (Rattus norvegicus [4]): 3.5 g
Activity (CHO-K1 [5]): Non-Toxic
Activity (Cricetulus griseus [6]): inactive
Activity [7]: inactive
Emax [8]: 79.2%
EC50 (Relaxin-3 receptor 2 [1]): 2 nM
Emax (Relaxin-3 receptor 2 [2]): 100%
Activity (Rattus norvegicus [9]): 7.1 g
Emax [3]: 105%
Activity [10]: Active
EC50 (Relaxin-3 receptor 2 [11]): 11 nM
Activity (CHO-K1 [12]): Non-Toxic
Activity (Cricetulus griseus [13]): inactive
Activity (CHO-K1 [14]): Non-Toxic
Activity (Rattus norvegicus [15]): 35.3 g
Activity (Cricetulus griseus [16]): inactive
Activity [17]: Active
